Test [1] has as its system control sera (pooled serum of ten healthy LUMC hospital workers; commercial negative donor pooled serum from the Dutch bloodbank). Type of test: binding, human. Details: Binding of Control serum LUMC to linear peptides / Binding of Control serum Blood-bank to linear peptides / Binding of Control serum LUMC to looped peptides / Binding of Control Serum Blood-Bank to Looped peptides / Binding of Control serum LUMC to linear peptides of the protein M of SARS-CoV Urbani / Binding of Control serum Blood-bank to linear peptides of the protein M of SARS-CoV Urbani / Binding of Control serum LUMC to looped peptides of the protein M of SARS-CoV Urbani / Binding of Control Serum Blood-Bank to Looped peptides of the protein M of SARS-CoV Urbani: unit not given here.

Test [2] has as its system antibodies in sera from SARS patients (sera 1a, 1b, 2, 6, 37, 62, London, SARS-yellow, SARS-green). It counts as binding, human. Also on record: Binding of serum 6 to linear peptides of protein X1 of SARS-CoV Urbani / Binding of serum 37 to linear peptides of protein X1 of SARS-CoV Urbani / Binding of serum 6 to looped/cyclic peptide (PEPSCAN-ELISA) / Binding of serum 37 to looped/cyclic peptide (PEPSCAN-ELISA) / Binding of serum 37 to looped/cyclic peptides of protein X1 of SARS-CoV Urbani / Binding of serum 6 to linear peptides of protein X2 / Binding of serum 37 to linear peptides of protein X2 / Binding of serum 37 to looped/cyclic peptides of protein X2 of SARS-CoV Urbani / Binding of serum 6 to linear peptides of protein M of SARS-CoV Urbani / Binding of serum 37 to linear peptides of protein M of SARS-CoV Urbani / Binding of serum 6 to looped/cyclic peptides of protein M of SARS-CoV Urbani / Binding of serum 37 to looped/cyclic peptides of protein M of SARS-CoV Urbani / Binding of serum 6 to linear peptides of protein X3 of SARS-CoV Urbani / Binding of serum 37 to linear peptides of protein X3 of SARS-CoV Urbani / Binding of serum 37 to looped/cyclic peptides of protein X3 of SARS-CoV Urbani / Binding of serum 6 to linear peptides of protein X4 of SARS-CoV Urbani / Binding of serum 37 to linear peptides of protein X4 of SARS-CoV Urbani / Binding of serum 37 to looped/cyclic peptides of protein X4 of SARS-CoV Urbani / Binding of serum 6 to linear peptides of protein X5 of SARS-CoV Urbani / Binding of serum 37 to linear peptides of protein X5 of SARS-CoV Urbani / Binding of serum 37 to looped/cyclic peptides of protein X5 of SARS-CoV Urbani / Binding of serum 6 to linear peptides of protein N of SARS-CoV Urbani / Binding of serum 37 to linear peptides of protein N of SARS-CoV Urbani / Binding of serum 6 to linear peptide (PEPSCAN-ELISA) / Binding of serum 1a to looped/cyclic peptides of protein N of SARS-CoV Urbani / Binding of serum 1b to looped/cyclic peptides of protein N of SARS-CoV Urbani / Binding of serum 2 to looped/cyclic peptides of protein N of SARS-CoV Urbani / Binding of serum 6 to looped/cyclic peptides of protein N of SARS-CoV Urbani / Binding of serum 37 to looped/cyclic peptides of protein N of SARS-CoV Urbani / Binding of serum 62 to looped/cyclic peptides of protein N of SARS-CoV Urbani / Binding of serum London to looped/cyclic peptides of protein N of SARS-CoV Urbani / Binding of serum SARS-green to looped/cyclic peptides of protein N of SARS-CoV Urbani: unit not given here.

Test [3] relates to rabbit serum obtained by immunizing a rabbit with the SARS-CoV strain Frankfurt 1. Type of test: binding. Details: Binding of a rabbit serum to linear peptides / Binding of a rabbit serum to looped peptides / Rabbit serum linear peptides / Rabbit serum looped peptides / Binding of a rabbit serum to linear peptides of protein N of SARS-CoV Urbani (Rabbit serum linear peptides) / Binding of a rabbit serum to looped/cyclic peptides of protein N of SARS-CoV Urbani (Rabbit serum looped peptides): unit not given here.

These results are taken from patent US20070128217A1 (priority 2003, published 2007).

QQWIQFMMSRRRLLA: in test [1], the “Binding of Control Serum Blood-Bank to Looped peptides” value amounted to 0.7, the “Binding of Control serum Blood-bank to linear peptides” value is listed as 0.8, the “Binding of Control serum LUMC to linear peptides” value stood at 0.6 and the “Binding of Control serum LUMC to looped peptides” value came out at 0.5. In test [2], the “Binding of serum 1a to linear peptides of protein X2” value came out at 0.6, the “Binding of serum 1a to looped/cyclic peptides of protein X2 of SARS-CoV Urbani” value was determined as 0.6, the “Binding of serum 1b to linear peptides of protein X2” value was 0.4 and the “Binding of serum 1b to looped/cyclic peptides of protein X2 of SARS-CoV Urbani” value is recorded as 0.5. Further, in test [2], the “Binding of serum 2 to linear peptides of protein X2” value came to 0.4, the “Binding of serum 2 to looped/cyclic peptides of protein X2 of SARS-CoV Urbani” value is given as 0.6, the “Binding of serum 6 to linear peptides of protein X2” value was 0.8 and the “Binding of serum 6 to looped/cyclic peptides of protein X2 of SARS-CoV Urbani” value was 0.4. Besides, in test [2], the “Binding of serum 37 to linear peptides of protein X2” value is given as 0.6, the “Binding of serum 37 to looped/cyclic peptides of protein X2 of SARS-CoV Urbani” value was found to be 0.6, the “Binding of serum 62 to linear peptides of protein X2” value was determined as 0.6 and the “Binding of serum 62 to looped/cyclic peptides of protein X2 of SARS-CoV Urbani” value is 0.8. For the same sequence, in test [2], the “Binding of serum London to linear peptides of protein X2” value is listed as 0.5, the “Binding of serum London to looped/cyclic peptides of protein X2 of SARS-CoV Urbani” value is given as 0.3, the “Binding of serum SARS-green to linear peptides of protein X2” value stood at 0.6 and the “Binding of serum SARS-green to looped/cyclic peptides of protein X2 of SARS-CoV Urbani” value is recorded as 0.5. Moreover, in test [2], the “Binding of serum SARS-yellow to linear peptides of protein X2” value stood at 0.6 and the “Binding of serum SARS-yellow to looped/cyclic peptides of protein X2 of SARS-CoV Urbani” value is listed as 0.4. Further, in test [3], the “Binding of a rabbit serum to linear peptides” value worked out at 0.8 and the “Binding of a rabbit serum to looped peptides” value is given as 1.5.

For the sequence QTLVLKMLHSSSLTS, in test [1], the “Binding of Control Serum Blood-Bank to Looped peptides” value is reported as 0.5, the “Binding of Control serum Blood-bank to linear peptides” value is on record as 0.7, the “Binding of Control serum LUMC to linear peptides” value was determined as 0.4 and the “Binding of Control serum LUMC to looped peptides” value amounted to 0.6. Moreover, in test [2], the “Binding of serum 1a to linear peptides of protein X2” value is on record as 0.7, the “Binding of serum 1a to looped/cyclic peptides of protein X2 of SARS-CoV Urbani” value was found to be 0.6, the “Binding of serum 1b to linear peptides of protein X2” value is reported as 0.5 and the “Binding of serum 1b to looped/cyclic peptides of protein X2 of SARS-CoV Urbani” value stood at 0.4. For the same sequence, in test [2], the “Binding of serum 2 to linear peptides of protein X2” value was found to be 0.5, the “Binding of serum 2 to looped/cyclic peptides of protein X2 of SARS-CoV Urbani” value was 0.3, the “Binding of serum 6 to linear peptides of protein X2” value was 0.5 and the “Binding of serum 6 to looped/cyclic peptides of protein X2 of SARS-CoV Urbani” value came to 0.5. In test [2], the “Binding of serum 37 to linear peptides of protein X2” value was found to be 0.5, the “Binding of serum 37 to looped/cyclic peptides of protein X2 of SARS-CoV Urbani” value came to 0.4, the “Binding of serum 62 to linear peptides of protein X2” value came to 0.6 and the “Binding of serum 62 to looped/cyclic peptides of protein X2 of SARS-CoV Urbani” value was found to be 0.6. In addition, in test [2], the “Binding of serum London to linear peptides of protein X2” value turned out to be 0.4, the “Binding of serum London to looped/cyclic peptides of protein X2 of SARS-CoV Urbani” value was found to be 0.9, the “Binding of serum SARS-green to linear peptides of protein X2” value is listed as 0.5 and the “Binding of serum SARS-green to looped/cyclic peptides of protein X2 of SARS-CoV Urbani” value is given as 0.3. Further, in test [2], the “Binding of serum SARS-yellow to linear peptides of protein X2” value came to 0.7 and the “Binding of serum SARS-yellow to looped/cyclic peptides of protein X2 of SARS-CoV Urbani” value is given as 0.4. In test [3], the “Binding of a rabbit serum to linear peptides” value was 0.3 and the “Binding of a rabbit serum to looped peptides” value came out at 0.4.

As for QVTIAEILIIIMRTF, in test [1], the “Binding of Control Serum Blood-Bank to Looped peptides of the protein X3 of SARS-CoV Urbani” value is reported as 0.9, the “Binding of Control serum Blood-bank to linear peptides of the protein X3 of SARS-CoV Urbani” value worked out at 0.7, the “Binding of Control serum LUMC to linear peptides of the protein X3 of SARS-CoV Urbani” value is given as 0.7 and the “Binding of Control serum LUMC to looped peptides of the protein X3 of SARS-CoV Urbani” value came to 0.7. In addition, in test [2], the “Binding of serum 1a to linear peptides of protein X3 of SARS-CoV Urbani” value was determined as 0.7, the “Binding of serum 1a to looped/cyclic peptides of protein X3 of SARS-CoV Urbani” value was 0.7, the “Binding of serum 1b to linear peptides of protein X3 of SARS-CoV Urbani” value is listed as 0.4 and the “Binding of serum 1b to looped/cyclic peptides of protein X3 of SARS-CoV Urbani” value is recorded as 0.3. In addition, in test [2], the “Binding of serum 2 to linear peptides of protein X3 of SARS-CoV Urbani” value was determined as 0.5, the “Binding of serum 2 to looped/cyclic peptides of protein X3 of SARS-CoV Urbani” value is reported as 0.5, the “Binding of serum 6 to linear peptides of protein X3 of SARS-CoV Urbani” value is reported as 0.5 and the “Binding of serum 6 to looped/cyclic peptides of protein X3 of SARS-CoV Urbani” value was found to be 0.5. Also, in test [2], the “Binding of serum 37 to linear peptides of protein X3 of SARS-CoV Urbani” value stood at 0.4, the “Binding of serum 37 to looped/cyclic peptides of protein X3 of SARS-CoV Urbani” value came to 0.6, the “Binding of serum 62 to linear peptides of protein X3 of SARS-CoV Urbani” value was 0.7 and the “Binding of serum 62 to looped/cyclic peptides of protein X3 of SARS-CoV Urbani” value is recorded as 0.4. Further, in test [2], the “Binding of serum London to linear peptides of protein X3 of SARS-CoV Urbani” value was determined as 0.7, the “Binding of serum London to looped/cyclic peptides of protein X3 of SARS-CoV Urbani” value is 0.2, the “Binding of serum SARS-green to linear peptides of protein X3 of SARS-CoV Urbani” value is recorded as 0.4 and the “Binding of serum SARS-green to looped/cyclic peptides of protein X3 of SARS-CoV Urbani” value is reported as 0.2. For the same sequence, in test [2], the “Binding of serum SARS-yellow to linear peptides of protein X3 of SARS-CoV Urbani” value was 0.2 and the “Binding of serum SARS-yellow to looped/cyclic peptides of protein X3 of SARS-CoV Urbani” value is on record as 0.7. In addition, in test [3], the “Rabbit serum linear peptides” value is given as 0.3 and the “Rabbit serum looped peptides” value was 0.6.

Consider RARSVSPKLFIRQEE, for which, in test [1], the “Binding of Control Serum Blood-Bank to Looped peptides” value amounted to 0.7, the “Binding of Control serum Blood-bank to linear peptides” value was determined as 0.6, the “Binding of Control serum LUMC to linear peptides” value turned out to be 0.5 and the “Binding of Control serum LUMC to looped peptides” value is on record as 0.8. For the same sequence, in test [2], the “Binding of serum 1a to linear peptides of protein X4 of SARS-CoV Urbani” value was 0.8, the “Binding of serum 1a to looped/cyclic peptides of protein X4 of SARS-CoV Urbani” value worked out at 0.8, the “Binding of serum 1b to linear peptides of protein X4 of SARS-CoV Urbani” value is on record as 0.6 and the “Binding of serum 1b to looped/cyclic peptides of protein X4 of SARS-CoV Urbani” value came out at 0.7. Also, in test [2], the “Binding of serum 2 to linear peptides of protein X4 of SARS-CoV Urbani” value came out at 0.4, the “Binding of serum 2 to looped/cyclic peptides of protein X4 of SARS-CoV Urbani” value was 0.6, the “Binding of serum 6 to linear peptides of protein X4 of SARS-CoV Urbani” value came out at 0.6 and the “Binding of serum 6 to looped/cyclic peptides of protein X4 of SARS-CoV Urbani” value is reported as 0.8. In addition, in test [2], the “Binding of serum 37 to linear peptides of protein X4 of SARS-CoV Urbani” value amounted to 0.7, the “Binding of serum 37 to looped/cyclic peptides of protein X4 of SARS-CoV Urbani” value was found to be 0.7, the “Binding of serum 62 to linear peptides of protein X4 of SARS-CoV Urbani” value is 0.8 and the “Binding of serum 62 to looped/cyclic peptides of protein X4 of SARS-CoV Urbani” value was 0.7. Besides, in test [2], the “Binding of serum London to linear peptides of protein X4 of SARS-CoV Urbani” value was found to be 0.8, the “Binding of serum London to looped/cyclic peptides of protein X4 of SARS-CoV Urbani” value was 0.5, the “Binding of serum SARS-green to linear peptides of protein X4 of SARS-CoV Urbani” value was determined as 0.6 and the “Binding of serum SARS-green to looped/cyclic peptides of protein X4 of SARS-CoV Urbani” value was determined as 0.7. Besides, in test [2], the “Binding of serum SARS-yellow to linear peptides of protein X4 of SARS-CoV Urbani” value came out at 0.1 and the “Binding of serum SARS-yellow to looped/cyclic peptides of protein X4 of SARS-CoV Urbani” value was determined as 0.7. Further, the “Recognition of the peptide by the rabbit serum” value in test [3] was “recognized”.
